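Five concentrations, 48 hours, 96-well plates. Here, GI50 denotes the concentration required for 50% inhibition of growth.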 The source made the active and inactive calls. Cut-off read from the data, not from the text of the source: active = GI50 up to about 1.1 µM and inactive = higher.
How the values were obtained:
Assay in all cases: growth of human tumour cells (NCI), 48 h
786-0 = test system: 786-0
ACHN = test system: ACHN
CCRF-CEM = test system: CCRF-CEM
DLD-1 = test system: DLD-1
HL-60 = test system: HL-60
HOP-62 = test system: HOP-62
K562 = test system: K562
OVCAR-3 = test system: OVCAR-3
SF-539 = test system: SF-539
SK-MEL-28 = test system: SK-MEL-28
SK-MEL-2 = test system: SK-MEL-2
SK-MEL-5 = test system: SK-MEL-5
SN12C = test system: SN12C
SNB-78 = test system: SNB-78
NCI-H226 = test system: NCI-H226
NCI-H522 = test system: NCI-H522
BT-549 = test system: BT-549
DU-145 = test system: DU-145
MCF7 = test system: MCF7
NCI/ADR-RES = test system: NCI/ADR-RES

SMILES | GI50 (786-0) | GI50 (ACHN) | GI50 (CCRF-CEM) | GI50 (DLD-1) | GI50 (HL-60) | GI50 (HOP-62) | GI50 (K562) | GI50 (OVCAR-3) | GI50 (SF-539) | GI50 (SK-MEL-28) | GI50 (SK-MEL-2) | GI50 (SK-MEL-5) | GI50 (SN12C) | GI50 (SNB-78) | GI50 (NCI-H226) | GI50 (NCI-H522) | GI50 (BT-549) | GI50 (DU-145) | GI50 (MCF7) | GI50 (NCI/ADR-RES)
CCOc1cc(/C=C/C=C/c2ccc(N(C)C)cc2)[s+]c2ccccc12 | 19 µM (inactive) | 30.5 µM (inactive) | 3.38 µM (inactive) | 23.9 µM (inactive) | 0.857 µM (active) | 7.71 µM (inactive) | 4.85 µM (inactive) | 14.2 µM (inactive) | 14.1 µM (inactive) | 27.2 µM (inactive) | 20.4 µM (inactive) | 11.8 µM (inactive) | 35.8 µM (inactive) | 25.5 µM (inactive) | – | – | – | – | – | –
COc1ccc(NN=C2C(=O)CCC2=O)cc1 | > 100 µM (inactive) | 74.3 µM (inactive) | > 100 µM (inactive) | > 100 µM (inactive) | > 100 µM (inactive) | 50 µM (inactive) | > 100 µM (inactive) | > 100 µM (inactive) | > 100 µM (inactive) | > 100 µM (inactive) | > 100 µM (inactive) | 48.2 µM (inactive) | > 100 µM (inactive) | > 100 µM (inactive) | > 100 µM (inactive) | – | – | – | – | –
CC(C(=O)OCc1ccccc1)N(Cc1ccccc1)Cc1ccccc1 (stereo not drawn) | – | 87.3 µM (inactive) | 53.5 µM (inactive) | > 100 µM (inactive) | 21 µM (inactive) | > 100 µM (inactive) | 77.8 µM (inactive) | > 100 µM (inactive) | > 100 µM (inactive) | > 100 µM (inactive) | 29.6 µM (inactive) | 43.1 µM (inactive) | > 100 µM (inactive) | > 100 µM (inactive) | – | 29.2 µM (inactive) | – | – | – | –
CCOC(=O)C1=C(Nc2ccc(Cl)c(Cl)c2)OC/C1=N\NC(=O)Cc1ccccc1 | > 100 µM (inactive) | – | > 100 µM (inactive) | > 100 µM (inactive) | > 100 µM (inactive) | > 100 µM (inactive) | 89.1 µM (inactive) | > 100 µM (inactive) | > 100 µM (inactive) | > 100 µM (inactive) | > 100 µM (inactive) | > 100 µM (inactive) | > 100 µM (inactive) | > 100 µM (inactive) | > 100 µM (inactive) | > 100 µM (inactive) | – | – | – | –
CNS(=O)(=O)NN(C)S(=O)(=O)c1ccc(C)cc1 | > 100 µM (inactive) | > 100 µM (inactive) | > 100 µM (inactive) | > 100 µM (inactive) | > 100 µM (inactive) | > 100 µM (inactive) | > 10 µM (inactive) | > 100 µM (inactive) | > 100 µM (inactive) | > 100 µM (inactive) | > 100 µM (inactive) | > 100 µM (inactive) | > 100 µM (inactive) | – | – | > 100 µM (inactive) | – | – | – | –
Cc1coc2c1C(=O)C(=O)c1ccccc1-2 | 1.84 µM (inactive) | – | 2.22 µM (inactive) | 1.98 µM (inactive) | – | 1.64 µM (inactive) | 0.335 µM (active) | 1.06 µM (active) | 1.52 µM (inactive) | 1.71 µM (inactive) | 1.87 µM (inactive) | 0.56 µM (active) | 0.838 µM (active) | 1.73 µM (inactive) | 1.21 µM (inactive) | 1.72 µM (inactive) | – | – | – | –
CC1=C(Cl)C=CP(=O)(OC(C)C)C1 (stereo not drawn) | > 100 µM (inactive) | > 100 µM (inactive) | 37.5 µM (inactive) | 35.7 µM (inactive) | 52 µM (inactive) | > 100 µM (inactive) | 47.4 µM (inactive) | > 100 µM (inactive) | > 100 µM (inactive) | > 100 µM (inactive) | > 100 µM (inactive) | > 100 µM (inactive) | > 100 µM (inactive) | > 100 µM (inactive) | – | 27.8 µM (inactive) | – | – | – | –
CC(=O)N(CCN)CCN | > 10 µM (inactive) | > 100 µM (inactive) | > 10 µM (inactive) | > 100 µM (inactive) | > 10 µM (inactive) | > 10 µM (inactive) | > 10 µM (inactive) | > 10 µM (inactive) | – | > 10 µM (inactive) | > 100 µM (inactive) | > 100 µM (inactive) | > 10 µM (inactive) | > 10 µM (inactive) | – | > 10 µM (inactive) | – | – | – | –
COc1cccc(C2SCc3nc4ccccc4n32)c1 (stereo not drawn) | > 100 µM (inactive) | 39.1 µM (inactive) | > 100 µM (inactive) | 88.1 µM (inactive) | 30.1 µM (inactive) | > 100 µM (inactive) | 45.4 µM (inactive) | 35.2 µM (inactive) | > 100 µM (inactive) | 81.3 µM (inactive) | 56.2 µM (inactive) | 21.1 µM (inactive) | 99.1 µM (inactive) | > 100 µM (inactive) | 51.4 µM (inactive) | – | – | – | – | –
CC(=O)NNc1nc(C)c(C(=O)NNC(=O)C(=O)Nc2c(C)cccc2C(C)(C)C)s1 | – | 59.4 µM (inactive) | 16.2 µM (inactive) | 61.8 µM (inactive) | 33.3 µM (inactive) | > 100 µM (inactive) | 31.3 µM (inactive) | – | > 100 µM (inactive) | > 100 µM (inactive) | > 100 µM (inactive) | > 100 µM (inactive) | 44.2 µM (inactive) | > 100 µM (inactive) | > 100 µM (inactive) | 20.9 µM (inactive) | – | – | – | –
Cc1nc2c(=O)[nH]c(=O)n(C)c2[nH]c1=O.c1ccncc1 | > 100 µM (inactive) | > 100 µM (inactive) | 10 µM (inactive) | > 100 µM (inactive) | > 100 µM (inactive) | > 100 µM (inactive) | > 100 µM (inactive) | > 100 µM (inactive) | – | > 100 µM (inactive) | > 100 µM (inactive) | > 100 µM (inactive) | > 100 µM (inactive) | – | > 100 µM (inactive) | > 100 µM (inactive) | – | – | – | –
COc1ccc(C2C(Cl)C(=O)N2NC(=O)Cc2ccccc2)cc1OC (stereo not drawn) | > 100 µM (inactive) | > 100 µM (inactive) | > 100 µM (inactive) | > 100 µM (inactive) | > 100 µM (inactive) | > 100 µM (inactive) | > 100 µM (inactive) | > 100 µM (inactive) | – | > 100 µM (inactive) | > 100 µM (inactive) | > 100 µM (inactive) | > 100 µM (inactive) | > 100 µM (inactive) | > 100 µM (inactive) | > 100 µM (inactive) | – | – | – | –
O=c1c2cccnc2ncn1CCCN1CCCCC1 | > 100 µM (inactive) | > 100 µM (inactive) | > 100 µM (inactive) | > 100 µM (inactive) | – | > 100 µM (inactive) | > 100 µM (inactive) | > 100 µM (inactive) | > 100 µM (inactive) | > 100 µM (inactive) | > 100 µM (inactive) | > 100 µM (inactive) | > 100 µM (inactive) | > 100 µM (inactive) | > 100 µM (inactive) | > 100 µM (inactive) | – | – | – | –
COCN1C(=O)[C@@H]2CCCN2C(=O)c2ccc(N)cc21 | > 100 µM (inactive) | > 100 µM (inactive) | > 100 µM (inactive) | – | > 100 µM (inactive) | > 100 µM (inactive) | > 100 µM (inactive) | > 100 µM (inactive) | > 100 µM (inactive) | > 100 µM (inactive) | > 100 µM (inactive) | > 100 µM (inactive) | > 100 µM (inactive) | – | > 100 µM (inactive) | > 100 µM (inactive) | > 100 µM (inactive) | > 100 µM (inactive) | > 100 µM (inactive) | > 100 µM (inactive)
COc1cc2c(cc1OC)[C@@H](C(O)c1ccccc1)NCC2 (stereo partly drawn) | > 100 µM (inactive) | > 100 µM (inactive) | > 100 µM (inactive) | > 100 µM (inactive) | > 100 µM (inactive) | > 100 µM (inactive) | > 100 µM (inactive) | > 100 µM (inactive) | > 100 µM (inactive) | – | > 100 µM (inactive) | > 100 µM (inactive) | > 100 µM (inactive) | > 100 µM (inactive) | > 100 µM (inactive) | > 100 µM (inactive) | – | – | – | –
CNS(=O)(=O)NN(C)S(=O)(=O)c1ccc(Cl)cc1 | > 100 µM (inactive) | > 100 µM (inactive) | > 100 µM (inactive) | > 100 µM (inactive) | > 100 µM (inactive) | > 100 µM (inactive) | > 100 µM (inactive) | > 100 µM (inactive) | > 100 µM (inactive) | – | > 100 µM (inactive) | > 100 µM (inactive) | > 100 µM (inactive) | – | > 100 µM (inactive) | > 100 µM (inactive) | – | – | – | –
CC(=O)OCC1OC(OC2CC3C(C)(C)C(OC(C)=O)CC[C@]3(C)C3CCC45CC4(CCC5[C@@H](C)C[C@H](O)C(O)C(C)(C)O)[C@]23C)C(O)C(O)C1O (stereo partly drawn) | > 10 µM (inactive) | > 10 µM (inactive) | > 10 µM (inactive) | – | 9.44 µM (inactive) | > 10 µM (inactive) | 9.12 µM (inactive) | > 10 µM (inactive) | > 10 µM (inactive) | > 10 µM (inactive) | 5.65 µM (inactive) | > 10 µM (inactive) | > 10 µM (inactive) | – | > 10 µM (inactive) | > 10 µM (inactive) | > 10 µM (inactive) | > 10 µM (inactive) | 6.61 µM (inactive) | > 10 µM (inactive)
COc1cc2c3c(c1OC)Oc1ccc(cc1)CC1c4c(cc(OC)c(OC)c4Oc4ccc(cc4)CC3N(C)CC2)CCN1C (stereo not drawn) | 19.8 µM (inactive) | 26.2 µM (inactive) | 18.5 µM (inactive) | 29.2 µM (inactive) | 15.3 µM (inactive) | 22.4 µM (inactive) | 16.9 µM (inactive) | 18.6 µM (inactive) | 14.5 µM (inactive) | 18.8 µM (inactive) | 32.3 µM (inactive) | 16.7 µM (inactive) | 19 µM (inactive) | – | 15.6 µM (inactive) | 12.7 µM (inactive) | – | – | – | –

Source: ChEMBL document CHEMBL1201862, “PubChem BioAssay data set” (2004)
